The assay deals with T1, VEGFR2 (KDR) (Homo sapiens, UniProt P35968).
T1 construct: made in house; host or cells: Sf9 cells (Spodoptera frugiperda), baculovirus (Bac-to-Bac)
The assay can be described thus: In Vitro Receptor Tyrosine Kinase Assay (VEGF Receptor KDR). The class given is biochemical. The note with it: recombinant GST-VEGFR2 806-1356, DELFIA assay, ATP 0.6 uM, enzyme 5 nM; read-out: VEGFR_IC50_UM. From the text: In Vitro Receptor Tyrosine Kinase Assay (VEGF Receptor KDR)
This test measures the ability of compounds to inhibit the enzymatic activity of recombinant human VEGF receptor enzymatic activity.
A 1.6-kb cDNA corresponding to the catalytic domain of VEGFR2 (KDR) (Genbank accession number AF035121 amino acid 806 to 1356) is cloned into the Pst I site of the pDEST20 Gateway vector (Invitrogen) for the production of a GST-tagged version of that enzyme. This construct is used to generate recombinant baculovirus using the Bac-to-Bac™ system according to the manufacturer's instructions (Invitrogen).
The GST-VEGFR2806-1356 protein is expressed in Sf9 cells (Spodoptera frugiperda) upon infection with recombinant baculovirus construct. Briefly, Sf9 cells grown in suspension and maintained in serum-free medium (Sf900 II supplemented with gentamycin) at a cell density of about 2×10^6 cells/ml are infected with the above-mentioned viruses at a multiplicity of infection (MOI) of 0.1 during 72 hours at 27° C. with agitation at 120 rpm on a rotary shaker. Infected cells are harvested by centrifugation at 398 g for 15 min. Cell pellets are frozen at […] until purification is performed.
All steps described in cell extraction and purification are performed at 4° C. Frozen Sf9 cell pellets infected with the GST-VEGFR2806-1356 recombinant baculovirus are thawed and gently resuspended in Buffer A (PBS pH 7.3 supplemented with 1 μg/ml pepstatin, 2 μg/ml Aprotinin and leupeptin, 50 μg/ml PMSF, 50 μg/ml TLCK and 10 μM E64 and 0.5 mM DTT) using 3 ml of buffer per gram of cells. Suspension is Dounce homogenized and 1% Triton X-100 is added to the homogenate after which it is centrifuged at 22500 g, 30 min., 4° C. The supernatant (cell extract) is used as starting material for purification of GST-VEGFR2806-1356.
The supernatant is loaded onto a GST-agarose column (Sigma) equilibrated with PBS pH 7.3. Following a four column volume (CV) wash with PBS pH 7.3+1% Triton X-100 and 4 CV wash with buffer B (50 mM Tris pH 8.0, 20% glycerol and 100 mM NaCl), bound proteins are step eluted with 5 CV of buffer B supplemented with 5 mM DTT and 15 mM glutathion. GST-VEGFR2806-1356 enriched fractions from this chromatography step are pooled based on U.V. trace i.e. fractions with high O.D.280. Final GST-VEGFR2806-1356 protein preparations concentrations are about 0.7 mg/ml with purity approximating 70%. Purified GST-VEGFR2806-1356 protein stocks are aliquoted and frozen at −80° C. prior to use in enzymatic assay.
Inhibition of VEGFR/KDR is measured in a DELFIA™ assay (Perkin Elmer). The substrate poly(Glu4,Tyr) is immobilized onto black high-binding polystyrene 96-well plates. The coated plates are washed and stored at 4° C. During the assay, the enzyme is pre-incubated with inhibitor and Mg-ATP on ice in polypropylene 96-well plates for 4 minutes, and then transferred to the coated plates. The subsequent kinase reaction takes place at 30° C. for 10-minutes. ATP concentrations in the assay are 0.6 uM for VEGFR/KDR (2× the Km). Enzyme concentration is 5 nM. After incubation, the kinase reactions are quenched with EDTA and the plates are washed. Phosphorylated product is detected by incubation with Europium-labeled anti-phosphotyrosine MoAb. After washing the plates, bound MoAb is detected by time-resolved fluorescence in a Gemini SpectraMax reader (Molecular Devices). Compounds are evaluated over a range of concentrations, and IC50 values (concentration of compounds giving 50% inhibition of enzymatic activity) are determined.

The structures appear in SMILES notation.

T1 sequence (P35968 806-1356): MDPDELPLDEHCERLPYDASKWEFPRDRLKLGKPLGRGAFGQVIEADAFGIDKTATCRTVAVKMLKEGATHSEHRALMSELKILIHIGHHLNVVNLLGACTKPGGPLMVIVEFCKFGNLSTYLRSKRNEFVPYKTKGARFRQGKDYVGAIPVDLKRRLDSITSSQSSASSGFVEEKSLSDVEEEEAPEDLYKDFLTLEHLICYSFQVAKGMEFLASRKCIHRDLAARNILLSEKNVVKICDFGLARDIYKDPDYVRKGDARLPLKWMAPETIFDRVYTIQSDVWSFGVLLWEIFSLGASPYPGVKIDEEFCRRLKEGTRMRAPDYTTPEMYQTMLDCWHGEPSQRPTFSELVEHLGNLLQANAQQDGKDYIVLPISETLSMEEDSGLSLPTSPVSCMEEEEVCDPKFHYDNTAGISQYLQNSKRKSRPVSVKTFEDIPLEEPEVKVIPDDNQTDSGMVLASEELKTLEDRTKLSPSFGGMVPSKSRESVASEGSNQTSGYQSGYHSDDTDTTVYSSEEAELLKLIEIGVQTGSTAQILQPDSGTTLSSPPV

Consider `CN1CCN(Cc2ccc(-c3cc4nccc(Oc5ccc(NC(=O)NC6CN(C)C6)cc5F)c4s3)nc2)CC1` [Compound 19, 1-(3-Fluoro-4-(2-(5-((4-methylpiperazin-1-yl)methyl)pyridin-2-yl)thieno[3,2-b]pyridin-7-yloxy)phenyl)-3-(1-methylazetidin-3-yl)urea], for which the IC50 was found to be 975 nM.
With `CC(=O)N1CC(NC(=O)Nc2ccc(Oc3ccnc4cc(-c5ccc(CN6CCC(NC(=O)OC(C)(C)C)CC6)cn5)sc34)c(F)c2)C1` [Compound 40, tert-Butyl 1-((6-(7-(4-(3-(1-acetylazetidin-3-yl)ureido)-2-fluorophenoxy)thieno[3,2-b]pyridin-2-yl)pyridin-3-yl)methyl)piperidin-4-ylcarbamate] the figure was 280 nM; with `CC(=O)N1CC(NC(=O)Nc2ccc(Oc3ccnc4cc(-c5ccc(CN6CCC(N)CC6)cn5)sc34)c(F)c2)C1` [Compound 41, 1-(1-Acetylazetidin-3-yl)-3-(4-(2-(5-((4-aminopiperidin-1-yl)methyl)pyridin-2-yl)thieno[3,2-b]pyridin-7-yloxy)-3-fluorophenyl)urea], 78 nM.
In the case of `CC(=O)N1CC(NC(=O)Nc2ccc(Oc3ccnc4cc(-c5ccc(CN6CCC(NC(=O)CO)CC6)cn5)sc34)c(F)c2)C1` [Compound 43, N-(1-((6-(7-(4-(3-(1-Acetylazetidin-3-yl)ureido)-2-fluorophenox)thieno[3,2-b]pyridin-2-yl)pyridin-3-yl)methyl)piperidin-4-yl)-2-hydroxyacetamide], the IC50 was 61 nM.
With `CCNC(=O)NC1CCN(Cc2ccc(-c3cc4nccc(Oc5ccc(NC(=O)NC6CN(C(C)=O)C6)cc5F)c4s3)nc2)CC1` [Compound 44] the figure was 157 nM.
Take `CNC1CCN(Cc2ccc(-c3cc4nccc(Oc5ccc(NC(=O)NC6CN(C(C)=O)C6)cc5F)c4s3)nc2)CC1` [Compound 45]: the IC50 turned out to be 70 nM.
Under `CC(=O)N1CC(NC(=O)Nc2ccc(Oc3ccnc4cc(-c5ccc(CN6CC(NC(=O)OC(C)(C)C)C6)cn5)sc34)c(F)c2)C1` [Compound 46-A] stands 137 nM; under `CC(=O)N1CC(NC(=O)Nc2ccc(Oc3ccnc4cc(-c5ccc(CN6CC(N)C6)cn5)sc34)c(F)c2)C1` [Compound 46], 130 nM; under `CC(=O)N1CC(NC(=O)Nc2ccc(Oc3ccnc4cc(-c5ccc(CN6CCN(C(=O)CO)CC6)cn5)sc34)c(F)c2)C1` [Compound 47-A], 68 nM.
As for `CC(=O)N1CC(NC(=O)Nc2ccc(Oc3ccnc4cc(-c5ccc(CN6CCC(N(C)C(=O)CO)CC6)cn5)sc34)c(F)c2)C1` [Compound 47], the IC50 amounted to 32 nM.
With `CC(=O)N1CC(NC(=O)Nc2ccc(Oc3ccnc4cc(-c5ccc(CN6CC(NC(=O)CO)C6)cn5)sc34)c(F)c2)C1` [Compound 48] the figure was 62 nM.
As to `CN1CCN(Cc2ccc(-c3cc4nccc(Oc5ccc(NC(=O)NC6CN(C(=O)OC(C)(C)C)C6)cc5F)c4s3)nc2)CC1` [Compound 50, tert-Butyl 3-(3-(3-fluoro-4-(2-(5-((4-methylpiperazin-1-yl)methyl)pyridin-2-yl)thieno[3,2-b]pyridin-7-yloxy)phenyl)ureido)azetidine-1-carboxylate], the IC50 came out at 35 nM.
With `CC(=O)N1CC(NC(=O)Nc2ccc(Oc3ccnc4cc(-c5ccc(CN6CCN(C)CC6)cn5)sc34)c(F)c2)C1` [Compound 51] the figure was 100 nM.
As to `CN1CCN(Cc2ccc(-c3cc4nccc(Oc5ccc(NC(=O)NC6CN(C(=O)Cc7ccccc7)C6)cc5F)c4s3)nc2)CC1` [Compound 53], the IC50 amounted to 58 nM.
Under `CN1CCN(Cc2ccc(-c3cc4nccc(Oc5ccc(NC(=O)NC6CN(S(C)(=O)=O)C6)cc5F)c4s3)nc2)CC1` [Compound 54] stands 36 nM.
Regarding `Cc1ccc(S(=O)(=O)N2CC(NC(=O)Nc3ccc(Oc4ccnc5cc(-c6ccc(CN7CCN(C)CC7)cn6)sc45)c(F)c3)C2)cc1` [Compound 55], the IC50 was determined as 10 nM.
Under `O=C(CO)N1CCN(Cc2ccc(-c3cc4nccc(Oc5ccc(Nc6nc7cc(Cl)ccc7[nH]6)cc5F)c4s3)nc2)CC1` [Compound 61, 1-(4-((6-(7-(4-(5-Chloro-1H-benzo[d]imidazol-2-ylamino)-2-fluorophenoxy)thieno[3,2-b]pyridin-2-yl)pyridin-3-yl)methyl)piperazin-1-yl)-2-hydroxyethanone] stands 56 nM; under `CN1CCN(Cc2ccc(-c3cc4nccc(Oc5ccc(Nc6nc7cc(Cl)ccc7[nH]6)cc5F)c4s3)nc2)CC1` [Compound 62, 5-Chloro-N-(3-fluoro-4-(2-(5-((4-methylpiperazin-1-yl)methyl)pyridin-2-yl)thieno[3,2-b]pyridin-7-yloxy)phenyl)-1H-benzo[d]imidazol-2-amine], 44 nM.
With `COCCNCc1ccc(-c2cc3nccc(Oc4ccc(Nc5nc6cc(Cl)ccc6[nH]5)cc4F)c3s2)nc1` [Compound 63, 5-Chloro-N-(3-fluoro-4-(2-(5-((2-methoxyethylamino)methyl)pyridin-2-yl)thieno[3,2-b]pyridin-7-yloxy)phenyl)-1H-benzo[d]imidazol-2-amine], the IC50 is 268 nM.
With `COCCN(Cc1ccc(-c2cc3nccc(Oc4ccc(Nc5nc6cc(Cl)ccc6[nH]5)cc4F)c3s2)nc1)C(=O)CO` [Compound 65, N-((6-(7-(4-(5-Chloro-1H-benzo[d]imidazol-2-ylamino)-2-fluorophenoxy)thieno[3,2-b]pyridin-2-yl)pyridin-3-yl)methyl)-2-hydroxy-N-(2-methoxyethyl)acetamide] the figure was 23 nM.
With `COCCN(Cc1ccc(-c2cc3nccc(Oc4ccc(NC(=O)NC5CN(C(=O)OC(C)(C)C)C5)cc4F)c3s2)nc1)C(=O)OC(C)(C)C` [Compound 67, tert-Butyl 3-(3-(4-(2-(5-((tert-butoxycarbonyl(2-methoxyethyl)amino)methyl)pyridin-2-yl)thieno[3,2-b]pyridin-7-yloxy)-3-fluorophenyl)ureido)azetidine-1-carboxylate] the figure was 57 nM; with `CCNC(=O)N(CCOC)Cc1ccc(-c2cc3nccc(Oc4ccc(NC(=O)NC5CN(C(=O)NCC)C5)cc4F)c3s2)nc1` [Compound 69, N-Ethyl-3-(3-(4-(2-(5-((3-ethyl-1-(2-methoxyethyl)ureido)methyl)pyridin-2-yl)thieno[3,2-b]pyridin-7-yloxy)-3-fluorophenyl)ureido)azetidine-1-carboxamide], 584 nM; with `COCCN(Cc1ccc(-c2cc3nccc(Oc4ccc(NC(=O)NC5CN(C(C)=O)C5)cc4F)c3s2)nc1)C(C)=O` [Compound 70, N-((6-(7-(4-(3-(1-Acetylazetidin-3-yl)ureido)-2-fluorophenoxy)thieno[3,2-b]pyridin-2-yl)pyridin-3-yl)methyl)-N-(2-methoxyethyl)acetamide], 75 nM.
Under `CCOC(=O)C1CCCN(Cc2ccc(-c3cc4nccc(Oc5ccc(NC(=O)NC6COC6)cc5F)c4s3)nc2)C1` (stereo not shown) [Compound 73, Ethyl 1-((6-(7-(2-fluoro-4-(3-oxetan-3-ylureido)phenoxy)thieno[3,2-b]pyridin-2-yl)pyridin-3-yl)methyl)piperidine-3-carboxylate] stands 523 nM; under `O=C(Nc1ccc(Oc2ccnc3cc(-c4ccc(CN5CCN(C(=O)CO)CC5)cn4)sc23)c(F)c1)NC1COC1` [Compound 88, 1-(3-Fluoro-4-(2-(5-((4-(2-hydroxyacetyl)piperazin-1-yl)methyl)pyridin-2-yl)thieno[3,2-b]pyridin-7-yloxy)phenyl)-3-(oxetan-3-yl)urea], 42 nM.
